In US8440442B2, “Method of assaying 5-FU” (Myriad Genetics, Inc, priority 2009, dated 2013):

Biological target: T1, dihydropyrimidine dehydrogenase (DPD) (Homo sapiens, UniProt Q12882)
T1 construct: from tissue; host or cells: donor whole blood (K2EDTA), plasma separated from it, and WBC/buffy coat
T1 sequence (Q12882 4-1025): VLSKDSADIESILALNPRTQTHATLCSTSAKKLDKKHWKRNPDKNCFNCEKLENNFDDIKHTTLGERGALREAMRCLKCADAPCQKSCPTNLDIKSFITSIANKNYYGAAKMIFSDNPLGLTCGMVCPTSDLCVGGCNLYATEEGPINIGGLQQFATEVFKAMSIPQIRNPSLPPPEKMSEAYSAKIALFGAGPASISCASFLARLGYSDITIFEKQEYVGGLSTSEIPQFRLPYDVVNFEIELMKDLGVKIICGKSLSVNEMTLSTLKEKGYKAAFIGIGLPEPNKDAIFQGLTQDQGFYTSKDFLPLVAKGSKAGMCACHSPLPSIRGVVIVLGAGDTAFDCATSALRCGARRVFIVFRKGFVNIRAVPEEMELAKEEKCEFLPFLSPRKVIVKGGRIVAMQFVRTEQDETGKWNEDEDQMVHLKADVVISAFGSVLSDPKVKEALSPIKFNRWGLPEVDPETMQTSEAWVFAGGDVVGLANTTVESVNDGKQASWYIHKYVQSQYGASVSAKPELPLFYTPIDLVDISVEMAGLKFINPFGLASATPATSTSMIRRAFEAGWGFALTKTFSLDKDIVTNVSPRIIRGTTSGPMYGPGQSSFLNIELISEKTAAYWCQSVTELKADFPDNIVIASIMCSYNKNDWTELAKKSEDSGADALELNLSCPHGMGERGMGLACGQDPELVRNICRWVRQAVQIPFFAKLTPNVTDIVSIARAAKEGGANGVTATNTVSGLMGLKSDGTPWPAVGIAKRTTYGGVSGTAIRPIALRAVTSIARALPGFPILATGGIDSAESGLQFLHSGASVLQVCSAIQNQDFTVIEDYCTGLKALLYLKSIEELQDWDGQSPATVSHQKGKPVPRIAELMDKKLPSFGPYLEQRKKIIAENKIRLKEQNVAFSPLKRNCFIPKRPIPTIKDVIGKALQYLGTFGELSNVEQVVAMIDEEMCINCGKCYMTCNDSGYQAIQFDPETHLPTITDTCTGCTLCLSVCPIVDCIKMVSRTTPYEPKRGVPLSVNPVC
Test: Extended incubation of gimeracil in blood before plasma separation
Assay type: biochemical
Settings: gimeracil 1200 ng/mL; for 5-FU Concentration 24 hrs after plasma separation / 5-FU Concentration Upon plasma separation: 500 ng/mL 5-FU
Experimental: In the following illustrative examples, 5-FU was measured using an antibody-based agglutination assay on the Olympus AU680 Analyzer using an antibody disclosed in U.S. Pat. No. 7,205,116. Specifically, the concentration of 5-FU in a sample is determined based on the absorbance of a sample, which is determined by the amount of aggregation by the nanoparticles. The system requires two reagents, which when mixed in the absence of free 5-FU will form large aggregates of nanoparticles and scatter light to result in a higher absorption value. In the presence of free 5-FU, the agglutination reaction becomes somewhat inhibited and scattering of light is less, causing a lower absorption value. The instrument is calibrated twice monthly, and a curve is generated (Absorbance vs. 5-FU concentration). Absorbance values from individual samples are compared against this curve to determine concentration.
Generally in the agglutination assay, 95 μl of a buffer containing 5-FU-labeled amino-dextran is pipetted to a cuvette, followed by 7 μL of a filtered plasma sample. The sample and reagent are mixed and then incubated for about 3.5 minutes. 95 μl of 5-FU antibody-conjugated nanoparticles is pipetted into the cuvette and mixed. The complete reaction incubates for about 6.2 minutes. A series of 27 measurements at 600 nm are taken at regular intervals by the AU680 analyzer throughout this process, and 5-FU concentration is calculated using the measurements from two specific time points.
Six tubes of blood (spray-on K2EDTA tubes, 6 mL) was drawn from each of six donors, and the blood tubes were inverted several times to mix the anti-coagulant into the blood. Blood tubes were pooled and kept separate by donor. An aliquot of each donor's blood was transferred to a new tube, and a calculated volume of 5-FU stock (at 200 ng/μL) was added to each blood sample to achieve a final concentration of 500 ng/mL 5-FU. Spiked blood samples were aliquotted to clean tubes, 4 mL of blood to each of 8 tubes per donor. Gimeracil in methanol solvent was added to the blood tubes to reach a final concentration of 1200 ng/mL. For negative control, methanol only is added to the control blood tube. Blood tubes sat at room temperature for 45 minutes, 24 hours, or 48 hours before plasma separation. At the appropriate times, the blood tubes were centrifuged at 2000×g for 10 minutes at room temperature for plasma separation. The plasma was aspirated immediately after centrifugation and dispensed into clean cryovials. For 5-FU assays, the plasma samples were run under standard conditions for the Olympus AU680 analyzer, as described above (200 μL, spin for 15 minutes at 12,500 rpm). Measurements of 5-FU concentration were taken after plasma collection and for 2 days following the initial reading. Plasma was stored at room temperature during the interval.

5-FU Concentration 24 hrs after plasma separation (45 minute incubation in blood): 538.1 ng/mL
5-FU Concentration Upon plasma separation (45 minute incubation in blood): 533.3 ng/mL
5-FU Concentration 24 hrs after plasma separation (24 hours incubation in blood): 551.9 ng/mL
5-FU Concentration Upon plasma separation (24 hours incubation in blood): 551.8 ng/mL
5-FU Concentration 24 hrs after plasma separation (48 hours incubation in blood): 578.4 ng/mL
5-FU Concentration Upon plasma separation (48 hours incubation in blood): 581.3 ng/mL
SMILES: Oc1cc(O)c(Cl)cn1 [Gimeracil, 5-chloro-2,4-dihydroxypyridine]
effect of keeping gimeracil in blood without plasma separation for a longer time (24 or 48 hours in blood (FIG. 5)): may cause 5-FU concentration to artificially increase
